Laboratory results from patent US7524852B2, “Bicyclic pyrimidine derivatives” (Kyowa Hakko Kogyo Co., Ltd., priority 2002, dated 2009).

These compounds were tested on Hut78 cells (assay: Inhibitory activity on binding of [125I]-TARC to Hut78 cells). Conditions: [125I]-TARC binding to Hut78 cells; test compound at 1 μmol/L.
Experimental: The RPMI-1640 medium (Sigma-Aldrich Japan) containing 20 mmol/L HEPES [4-(2-hydroxyethyl)-1-piperazinylethanesulfonic acid; HEPES, Nacalai Tesque, Inc.] and 0.1 w/v % bovine serum albumin (SEIKAGAKU CORPORATION) was adjusted to pH 7.0 with sodium hydrogen carbonate (Wako Pure Chemical Industries, Ltd.) to yield a binding/wash buffer. In a 96-well round-bottomed plate (Corning Costar Corporation) were placed 60 μL of a suspension of Hut78 cells (ATCC No. TIB-161) ([…] cells) in the binding/wash buffer, 20 μL of a solution of a test compound and 20 μL of a solution of 810 Bq of [^125I]-TARC (Amersham Biosciences K.K.) diluted with the binding/wash buffer up to the total aliquot of 100 μL, followed by reaction at room temperature for two hours. The solution of the test compound had been prepared by dissolving the test compound in dimethyl sulfoxide (Nacalai Tesque, Inc.) to a concentration of 10 mmol/L, and diluting the solution with the binding/wash buffer to a series of concentrations. The nonspecific binding was determined by a binding assay in the presence of a sufficient amount of unlabeled TARC. The total binding was defined as a binding in the case where dimethyl sulfoxide (Nacalai Tesque, Inc.) was added, instead of the test compound, in the same concentration (0.1 v/v %). […] Microscinti 20 (Packard BioScience Company) was placed in each well at 50 μL/well, and the radioactivity on the glass filter was determined using Topcount NXT™ (Packard BioScience Company). The binding inhibitory rates (%) of the test compounds were determined by calculation according to the following equation:
[formula] Total binding: [^125I]-TARC binding radioactivity without addition of the test compound Binding upon addition of test compound: [^125I]-TARC binding radioactivity at respective concentration upon addition of test compound Nonspecific binding: [^125I]-TARC binding radioactivity upon addition of unlabeled TARC

Compared with CCNC(=O)N1CCc2nc(N3CCN(C[C@@H]4CN(C)CCO4)CC3)nc(NCc3ccc(Cl)cc3Cl)c2C1 [Compound 15-47], CCCNC(=O)N1CCc2nc(N3CCN(CC4CN(C)CCO4)CC3)nc(NCc3ccc(Cl)cc3Cl)c2C1 (stereo not drawn) [Compound 15-54] is higher in “The Binding Inhibitory Rates at 1 μmol/L” value: 96 for the first, 97 for the second.

For CCCNC(=O)N1CCc2nc(N3CCN(CC4CN(C)CCO4)CC3)nc(NCc3ccc(Cl)cc3Cl)c2C1 (stereo not drawn) [Compound 15-59], the “The Binding Inhibitory Rates at 1 μmol/L” value was 90.
